Columns and labels:
HeLa cells [1] = assay: Transduction efficiency by GFP reporter gene expression (FACS); assay type: cell-based; conditions: peptide 4.86 μM, molar excess of about 2000 times; FIG. 5b
Experimental: FIG. 5. Chimeric phages transduce eukaryotic cells in a receptor-dependent way. Cells are incubated for 1 hour at 4° C. and for 3 hours at 37° C. with 2×10^13 particles of Pb-GFP phage or ΔPb-GFP phage. After 72 hours said cells are analyzed with FACS. For competition tests they are pre-incubated with GRGDSP or GRGESP peptides (4.86 μM, corresponding to a molar excess of about 2000 times) for 1 hour at 4° C. and then incubated with chimeric phages. Data are analyzed with WinMDI2.8 software. 10^4 cells for each well are counted. a) White bars correspond to ΔPb-GFP phages; b) striped bars correspond to Pb-GFP b) phage.
The expression of GFP reporter gene (Green Fluorescent Protein) was carried out by FACS analysis as follows: 1×10^5 cells (HeLa, Cs-1/β3 or Cs-1) were plated in 6-portion wells. […] After the washings and 72 hours of incubation in fresh medium the expression levels of GFP protein were measured by FACS. The specificity of the measured signal was evaluated also in presence of GRGDSP or GRGESP peptides, pre-incubating the cells for 1 hour, with peptide concentration of 4.86 μM, corresponding to a molar excess of about 2000 times and maintaining said concentrations in the following incubations. 10^4 cells were measured for each sample. […]

HeLa cells [2] = assay: Phage micropanning, internalization (37° C.), with or without kinase inhibitors; assay type: cell-based; conditions: Wortammannin 1 μM, ML-7 2 μM, FIG. 4
Source text: FIG. 4. Effect of the inhibitors of Wortammanin and ML-7 kinases on cell internalization. 10^12 particles of ΔPb phage (white bars) or of Pb phage (striped bars) are adsorbed on HeLa cells. The internalized phage is recovered and titrated. […] Data are shown as percentages of control enrichments carried out without inhibitors. Th results are average values of three different tests carried out in two series; SD (Standard Deviation) is also shown.
The micropanning on HeLa and CS-1 or CS-1/β3 cells was carried out […] at 4° C. and at 37° C. in order to quantify the bond and the internalization of chimeric phages, respectively. […] The eluates were titrated by ELISA on a plate coated with an anti-M13 antibody detected with anti-pVIII-HRP antibody, using as standard a phage stock with known titer.
Phage internalization was evaluated on cells which have been pre-incubated for 30′ at 37° C. with chlorokine 100 nM (Sigma) alone or together with an inhibitor of PI3K (phosphatidylinositol-3OH kinase), 1 μM Wortammannin (Sigma) or with an inhibitor of myosin light chain kinase ML-7 2 μM hydrochloride (Calbiochem, La Jolla, Calif.). […]
In short, the experiment was carried out as follows: 7.5×10^4 cells/well are plated and incubated with 10^12 chimeric phage particles. The results are expressed as enrichment factors with respect to control phages. […]

Compound | inhibition of the transduction of HeLa cells by ΔPb-GFP phage (HeLa cells [1]) | effect of kinase inhibitor on internalization of Pb and ΔPb chimeric phages (HeLa cells [2])
GRGESP | not observed | –
COC[C@H]1OC(=O)c2coc3c2[C@@]1(C)C1=C(C3=O)[C@@H]2CCC(=O)[C@@]2(C)C[C@H]1OC(C)=O [Wortammannin] | – | inhibited
O=S(=O)(c1cccc2c(I)cccc12)N1CCCNCC1 [ML-7] | – | not
GRGDSP | up to 90% | –
